# In article PMC3702614, “Dietary Compound Isoliquiritigenin Inhibits Breast Cancer Neoangiogenesis via VEGF/VEGFR-2 Signaling Pathway” (PLoS ONE, 2013):
# Target: T1, VEGFR-2 (Homo sapiens, UniProt P35968)
# T1 construct: gene KDR; biotin-labeled VEGFR-2 (Prospec)
# Assay: in vitro tyrosine kinase ELISA
# Assay type: biochemical
# T1 sequence (P35968 20-1356): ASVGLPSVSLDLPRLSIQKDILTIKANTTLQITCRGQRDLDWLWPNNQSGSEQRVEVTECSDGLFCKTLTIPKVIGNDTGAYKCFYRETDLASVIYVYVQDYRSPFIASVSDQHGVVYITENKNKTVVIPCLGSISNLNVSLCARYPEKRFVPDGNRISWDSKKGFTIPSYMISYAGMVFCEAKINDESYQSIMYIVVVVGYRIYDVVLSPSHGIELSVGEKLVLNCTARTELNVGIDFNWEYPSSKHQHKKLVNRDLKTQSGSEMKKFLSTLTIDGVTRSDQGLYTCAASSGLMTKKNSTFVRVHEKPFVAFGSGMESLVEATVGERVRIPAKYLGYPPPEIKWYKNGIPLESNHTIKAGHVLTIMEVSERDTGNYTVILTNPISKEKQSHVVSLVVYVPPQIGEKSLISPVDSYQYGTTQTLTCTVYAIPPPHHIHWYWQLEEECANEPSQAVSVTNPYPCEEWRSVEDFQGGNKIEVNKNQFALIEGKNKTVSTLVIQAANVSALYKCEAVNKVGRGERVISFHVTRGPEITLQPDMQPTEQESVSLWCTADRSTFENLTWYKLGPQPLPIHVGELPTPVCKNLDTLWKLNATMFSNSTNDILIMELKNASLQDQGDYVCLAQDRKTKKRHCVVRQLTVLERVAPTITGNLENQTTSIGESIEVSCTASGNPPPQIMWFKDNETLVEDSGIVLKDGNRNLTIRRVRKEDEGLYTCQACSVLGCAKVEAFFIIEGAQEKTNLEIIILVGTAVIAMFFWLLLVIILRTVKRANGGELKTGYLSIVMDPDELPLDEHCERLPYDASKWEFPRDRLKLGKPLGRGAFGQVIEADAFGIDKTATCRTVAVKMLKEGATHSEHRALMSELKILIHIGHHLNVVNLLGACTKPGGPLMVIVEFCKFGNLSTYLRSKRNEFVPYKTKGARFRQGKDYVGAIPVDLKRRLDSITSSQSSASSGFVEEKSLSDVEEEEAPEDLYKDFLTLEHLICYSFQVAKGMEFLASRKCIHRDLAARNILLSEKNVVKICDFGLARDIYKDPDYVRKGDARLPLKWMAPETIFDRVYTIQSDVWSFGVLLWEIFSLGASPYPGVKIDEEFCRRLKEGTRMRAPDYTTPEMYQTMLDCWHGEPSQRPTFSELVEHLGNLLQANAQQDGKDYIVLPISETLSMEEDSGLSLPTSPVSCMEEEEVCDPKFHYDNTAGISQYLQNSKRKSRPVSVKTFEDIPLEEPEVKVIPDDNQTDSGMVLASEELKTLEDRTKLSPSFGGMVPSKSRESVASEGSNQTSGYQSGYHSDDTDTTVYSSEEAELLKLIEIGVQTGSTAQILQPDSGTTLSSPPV
structure (smiles),measurement,value
"O=C(/C=C/c1ccc(O)cc1)c1ccc(O)cc1O [ISL, Isoliquiritigenin]",IC50,~100 nM
